Where two headings read alike, the source gives them in different places. Strand notation (5' to 3'): a small letter for the sugar, then the base; units joined by * are phosphorothioate-linked, units joined directly phosphodiester-linked; [ ] holds rarer units or linkages, { } end groups; capitals alone tell only the bases. {m7GpppGm} = cap: 7-methylguanosine 5'-5' triphosphate-linked to 2'-O-methylguanosine; {m7GpppG} = cap: 7-methylguanosine 5'-5' triphosphate-linked to guanosine; r = 2'-OH (RNA)
Tested on: CAT protein expression in 76 cells expressing RNA polymerases (PB1, PB2, and PA) and NP protein of influenza A virus (A/PR/8/34)
Assay type: cell-based

Q: For “m^7GpppG AAUACUC ({m7GpppG}-rArArUrArCrUrC) [G8]”, which “inhibition of CAT protein expression (in words)” value (“inhibition” below) (concentration not specified) is on record?
A: Its value is “significant inhibition”.

Q: For “m^7GpppGmAAUACUC ({m7GpppGm}-rArArUrArCrUrC) [Gm8]”, which “inhibition” value (concentration not specified) is on record?
A: The value was “significant inhibition”.

Q: How did the “inhibition” value (concentration not specified) turn out when “m^7GpppGmAAUACUCAAACU ({m7GpppGm}-rArArUrArCrUrCrArArArCrU) [Gm13, reference compound]” was run?
A: The value was “weak inhibition”.

Q: And the “inhibition” value (high dose (0.3 μM))?
A: The value was “little inhibition”.

Source: patent publication US6495675B1, “Pharmaceutical composition for treating or preventing influenza, and novel capped oligonucleotide” (Chiba Institute of Technology, priority 1997, dated 2002)
